Read-outs that look alike come from different tables or passages of the source.
Assays:
[1] = in vitro; assay type: cell-based; settings: human
Method: The old cell media was then discarded, and cells were washed with PBS. 35 µl DMEM-Media and 35 µl CellTiterGlow® reagent (#G7571, Promega) were added and incubated for 2 minutes on an orbital shaker protected from light. Afterwards plates were incubated for 10 minutes without shaking to stabilize the luminescent signal. 50 µl of the supernatant was transferred to a white 96 well measure plate and measured by Berthold TriStar2 S Multimode Reader. The background signal was determined by the luminescent signal of the positive control subtracted from the values used for analysis. The data was then normalized to the non-treated control. CC50 was calculated as the half-maximal cytotoxic dose via GraphPad Prism 9 using four-parameter nonlinear regression.
Luminescent signals were measured by Berthold TriStar2 S Multimode Reader. The data was then normalized to the non-treated control. CC50 was calculated as the half-maximal cytotoxic dose via GraphPad Prism 9 using four-parameter nonlinear regression.

[2] = CC50 calculation, MTT assay, Calu-3; assay type: cell-based; settings: human, Calu-3 cells
Method: (§1) The cells were treated with drug candidates at the indicated concentrations. Negative control (non-treated), DMSO control and positive control (100% DMSO treated) were added, and plates were then stored at 37 °C, 5 % CO2 for 72h. The old cell media was then discarded, and cells were incubated for 3 h at 37°C, 5% CO2 with 90 µl phenolred-free DMEM-Media and 10 µl of a 5 mg/ml MTT solution per well (#ab146345 Abcam). Afterwards Media was discarded carefully, and Formazan crystals were dissolved on a shaker with 100 µl MTT buffer/well (0.04 N HCI in isopropanol) for 10 minutes. Absorption levels at 570 nm and 650 nm wavelength were measured by Berthold TriStar2 S Multimode Reader and values were normalized to non-treated cells. CC50 was calculated as the half-maximal cytotoxic dose via GraphPad Prism 9 using four-parameter nonlinear regression.
(§2) Absorption levels at 570 nm and 650 nm wavelength were measured and values were normalized to non-treated cells. CC50 was calculated as the half-maximal cytotoxic dose via GraphPad Prism 9 using four-parameter nonlinear regression.
(§3) They now expanded the tests and used MTT assay, which is a procedure used to calculate the redox activity at the mitochondrial membrane of cells and the commercial cell titer glow assay (Promega) to measure cellular ATP. Cell lines tested were the ones used for our antiviral assay, i.e. Calu-3, Caco-2 and Huh7.5 cells.

[3] = in vitro; settings: human, calu-3 cells, CC50 (IncuCyte), confluency every 3 hours for 72h
Method: (§4) Calu-3 (40.000/well), Huh7.5 (10.000/well) and CaCo2 (10.000/well) cells were seeded in 96-well plates in DMEM-Media. The cells were treated with the drug compounds at the indicated concentrations, negative control (non-treated), DMSO control and positive control (50% DMSO treated) were added, and plates were then stored in the IncuCyte® at 37 °C, 5 % CO2 for 72h measuring every 3 hours cell confluency via phase channel with 10x objective. For Analysis IncuCyte® S3 Software was used.
(§5) Plates were then stored in the IncuCyte® measuring every 3 hours cell confluency.

[4] = CC50 calculation, MTT assay, Huh7.5; assay type: cell-based; settings: human, Huh7.5 cells
Method: as §1, §2, §3

[5] = test system: DENV type 2 reporter virus
[6] = test system: Calu-3 cells
Method: as §4, §5

[7] = test system: DENV type 2 reporter virus; test: microbe, parasite or virus in culture; settings: Dengue virus, Huh7.5, 24 h
[8] = in vitro; assay type: cell-based; settings: human, caco-2; IncuCyte; cell line not specified; read-out: level of growth inhibition (live-cell imaging, growth curves)
Excerpt: For Analysis IncuCyte® S3 Software was used.

[9] = test system: icSARS-CoV-2-mNG; assay type: cell-based, SARS-CoV-2
[10] = test system: icSARS-CoV-2-mNG; test: IC50 calculation with icSARS-CoV-2-mNG in Calu-3 cells (mNG+/Hoechst+ infection rate); settings: ic-SARS-CoV-2-mNG in Calu-3 cells; for Therapeutic range: CC50/IC50 (CTG): CC50 by CTG; for Therapeutic range: CC50/IC50 (IncuCyte): CC50 by IncuCyte; for Therapeutic range: CC50/IC50 (MTT): CC50 by MTT
[11] = Cell viability via live cell imaging (IncuCyte), Huh7.5; settings: human, huh7.5 cells
Method: as §4, §5

[12] = test system: Calu-3 cells; test: Toxicity by staining of the nuclei (Hoechst+ cell count) in the icSARS-CoV-2-mNG IC50 experiment; settings: Calu3 cells in the icSARS-CoV-2-mNG IC50 experiment
[13] = test system: DENV; settings: against DENV; reported, with a low therapeutic index; cited from earlier work
[14] = test system: ZIKA; settings: against ZIKA; reported, with a low therapeutic index; cited from earlier work
[15] = test system: Huh7.5 cells; test: CC50 calculation, MTT assay, Huh7.5; assay type: cell-based; settings: 72h, 4320 min
Method: as §1, §2, §3

[16] = test system: CaCo2 and Calu3 cells; settings: screening at 50, 10, 2 µM
[17] = Calu3 and Caco2 cells, 24h pre-treatment, […], 50, 10, 2 µM (Atpenin A5 10, 2, 0.4 µM)

SMILES: COc1[nH]c(=O)c(C(=O)[C@@H](C)C[C@H](C)[C@@H](Cl)CCl)c(O)c1OC [Atpenin A5, atpenin A5]
- CC50 at 72 h ([1]; Calu-3 cells, 72h, read-out: CC50 (CTG)): 860 nM
- CC50 at 72 h ([1]; Huh7.5 cells, 72h, read-out: CC50 (CTG)): 62000 nM
- CC50 at 72 h [2]: 1200 nM
- CC50 at 72 h [3]: > 160 µM
- CC50 at 72 h [4]: 101 µM
- Therapeutic range: CC50/IC50 (CTG) ([5]; Dengue Virus in Huh7.5 cells, CC50 by CTG): CTG: 229.5
- Therapeutic range: CC50/IC50 (IncuCyte) ([5]; Dengue Virus in Huh7.5 cells, CC50 by IncuCyte): IncuCyte: 240.7
- Therapeutic range: CC50/IC50 (MTT) ([5]; Dengue Virus in Huh7.5 cells, CC50 by MTT): MTT: 375.2
- CC50 ([6]; read-out: CC50 (IncuCyte), confluency every 3 hours for 72h, 4320 min): > 0.08 mM
- IC50 [7]: 270 nM
- CC50 at 72 h [8]: > 60 µM
- SARS-CoV-2 infection of the cell lines (infection rate mNG+/Hoechst+ cells) [9, 17]: inhibited SARS-CoV-2 infection of the cell lines in a dose-dependent manner
- Therapeutic range: CC50/IC50 (CTG) [10]: CTG: 1.72
- Therapeutic range: CC50/IC50 (IncuCyte) [10]: IncuCyte: > 320
- Therapeutic range: CC50/IC50 (MTT) [10]: MTT: 24
- CC50 at 72 h [11]: 65 µM

SMILES: CN(C)C(=N)N=C(N)N [Metformin]
- toxicity (staining of the nuclei, cell count) [12]: without any cytotoxicity
- antiviral activity [13]: mM range
- antiviral activity [14]: mM range

SMILES: [H]/N=C(/N)N/C(=N/[H])NCCc1ccccc1 [Phenformin]
- CC50 at 72 h ([1]; caco-2): > 2000 nM
- CC50 at 72 h ([1]; calu-3 cells): > 2000 nM
- CC50 at 72 h ([1]; huh7.5 cells): > 2000 nM
- toxicity (staining of the nuclei, cell count) [12]: without any toxicity
- CC50 [15]: 61.2 µM
- Therapeutic range: CC50/IC50 (CTG) ([5]; human, huh7.5 cells): CTG: 109.2
- Therapeutic range: CC50/IC50 (IncuCyte) ([5]; human, huh7.5 cells): IncuCyte: 59.9
- Therapeutic range: CC50/IC50 (MTT) ([5]; human, huh7.5 cells): MTT: 3.3
- CC50 ([6]; human, 72h): 1.5 mM
- SARS-CoV-2 infection of the cell lines (infection rate mNG+/Hoechst+ cells) [9]: inhibited SARS-CoV-2 infection of the cell lines in a dose-dependent manner
- Therapeutic range: CC50/IC50 (CTG) [10]: CTG: 1306.4
- Therapeutic range: CC50/IC50 (IncuCyte) [10]: IncuCyte: 867.1
- Therapeutic range: CC50/IC50 (MTT) [10]: MTT: 876.3

SMILES: CC(C)Cc1nn(C)c(=O)c2c(SCCCO)n(Cc3cccc4ccccc34)cc12 [SR13800]
- toxicity (cell viability by Hoechst staining of the nucleus) [16]: toxic

SMILES: O[C@H]1[C@H](O)[C@@H](O)[C@H](O)[C@@H](O)[C@@H]1O [Scyllo-Inositol, Scyllo-inositol]
- SARS-CoV-2 infection of the cell lines (infection rate mNG+/Hoechst+ cells) [9, 17]: did not show any activity
